Assay results published in BindingDB's records for doi:10.1021/acs.jmedchem.9b00966 (2019).
pIC50: −log10 of the molar value.

What was measured:
[1] = Reversal of P-gp mediated multidrug resistance in human DU145-TxR cells overexpressing P-gp assessed as potentiation of paclitaxel-induced cytotoxicity by measuring paclitaxel IC50 at 3 uM after 48 hrs by MTT assay (Rvb = 2120 nM)
[2] = Reversal of P-gp mediated multidrug resistance in human DU145-TxR cells overexpressing P-gp assessed as potentiation of paclitaxel-induced cytotoxicity by measuring paclitaxel IC50 at 7 uM after 48 hrs by MTT assay (Rvb = 2120 nM)
[3] = Reversal of P-gp mediated multidrug resistance in human DU145-TxR cells overexpressing P-gp assessed as potentiation of paclitaxel-induced cytotoxicity by measuring paclitaxel IC50 at 10 uM after 48 hrs by MTT assay (Rvb = 2120 nM)
[4] = Reversal of P-gp mediated multidrug resistance in human DU145-TxR cells overexpressing P-gp assessed as potentiation of paclitaxel-induced cytotoxicity by measuring paclitaxel IC50 at 5 uM after 48 hrs by MTT assay (Rvb = 2120 nM)

Row | Structure (SMILES) | pIC50 [1] | pIC50 [2] | pIC50 [3] | pIC50 [4]
1 | Cc1cc(C)c(-c2cc(NC(=O)CSCC(=O)Nc3ccc4ccccc4c3)n(-c3ccccc3)n2)cc1C | 6.82 | 8.15 | 8.70 | 7.34
2 | COc1cc(NC(=O)CSCC(=O)Nc2cc(-c3cc(C)c(C)cc3C)nn2-c2ccccc2)cc(OC)c1OC | 6.73 | 9.19 | 10.15 | 8.72
3 | Cc1cc(C)c(-c2cc(NC(=O)CSCC(=O)NC34CC5CC(CC(C5)C3)C4)n(-c3ccccc3)n2)cc1C | 6.64 | 7.68 | 7.89 | 6.96
4 | Cc1cc(C)c(-c2cc(NC(=O)CSc3nnc4c(n3)[nH]c3ccccc34)n(-c3ccccc3)n2)cc1C | 6.37 | 7.77 | 7.77 | 7.68
5 | Cc1cc(C)c(-c2cc(NC(=O)CSCC(=O)c3ccc4c(c3)Cc3ccccc3-4)n(-c3ccccc3)n2)cc1C | 6.58 | 7.21 | 7.24 | 6.81
6 | Cc1cc(C)c(-c2cc(NC(=O)CSc3cccc(NC(=O)c4cncc(Br)c4)c3)n(-c3ccccc3)n2)cc1C | 7.25 | 8.05 | 8.22 | 7.70
7 | Cc1cc(C)c(-c2cc(NC(=O)CSCC(=O)N3c4ccccc4CCc4ccccc43)n(-c3ccccc3)n2)cc1C | 6.79 | 8.22 | 8.40 | 7.28
8 | Cc1cc(C)c(-c2cc(NC(=O)CSCC(=O)NC(c3ccccc3)c3ccccc3)n(-c3ccccc3)n2)cc1C | 6.80 | 7.80 | 7.96 | 7.25
9 | Cc1cc(C)c(-c2cc(NC(=O)CSCC(=O)NCc3ccc(F)cc3)n(-c3ccccc3)n2)cc1C | 6.34 | 6.72 | 6.88 | 6.42
10 | Cc1cc(C)c(-c2cc(NC(=O)CSCC(=O)Nc3ccc4ncsc4c3)n(-c3ccccc3)n2)cc1C | 6.76 | 8.54 | 9.11 | 8.24
11 | Cc1cc(C)c(-c2cc(NC(=O)CSc3n[nH]c(C4CC4)n3)n(-c3ccccc3)n2)cc1C | 6.20 | 7.23 | 7.68 | 6.71
